{"source": "patent US20060035291A1", "about": "“Method of detecting cellular immunity and application thereof to drugs” (priority 2001, published 2006)", "key": {"cancer patients [1]": {"tested_on": "cancer patients", "assay": "Skin test for immediate and delayed type hypersensitivity in cancer patients", "conditions": "for immediate hypersensitivity reaction in skin test: human, in vivo; for type I allergy in skin tests during the course of vaccination: skin tests before the 9th and 17th dose (ART413, SART3315), 3rd pre-vaccination skin test (CypB91)", "procedure": "For the skin test, 10 μg of 5 kinds of peptides was subcutaneously administered to each patient. Saline was used as the negative control. 20 minutes and 24 hours after injection, immediate and delayed type hypersensitivity (DHT) reactions were looked for. The skin test reaction was determined as positive if erythema and sclerosis were more than 10 mm in diameter. If the immediate hypersensitivity reaction was negative, a peptide was administered. Each peptide solution (3 mg/ml) was mixed with the same amount of IFA (Montanide ISA-51) and emulsified in a 5-mI plastic syringe, and 3 ml of the emulsion was subcutaneously administered to the lateral femoral region every two weeks. Serum PSA level was measured 4 weeks after vaccination. The time passed was defined as the time from the registration day to the date when the progress of the target disease was recorded. For patients who chose to discontinue the study without any progress of the target disease (e.g., increase in PSA) it was determined that the disease had progressed at the time the study was stopped.\nWhen an immediate hypersensitivity reaction positive in the skin test of one of these peptides, that peptide was vaccinated if the fifth peptide of criteria A, B, or Z was negative in the skin test. […] In Table 14, o signifies vaccine peptides given to each patient.\nVaccine was administered to HLA-A24 positive patients with progressive cancer as following. CypB91 was given to lung cancer patients, ART475 to ovarian cancer patients, and SART3109 to colorectal cancer patients. None of the patients received any steroids or other immunosuppressants from 4 weeks before the beginning of this study to the end of the study. When the skin test was negative, 1 ml of peptide solution (1 mg/ml) was emulsified with the same amount of Freund's incomplete adjuvant (Montanide ISA-51) and injected subcutaneously. In this embodiment, all patients were vaccinated at least three times every two weeks, and up to seventeen times, depending on the patient's wishes."}, "healthy donors": {"tested_on": "healthy donors", "conditions": "in vivo"}, "cancer patients [2]": {"tested_on": "cancer patients", "conditions": "cancer patients (Miyagi et al., Clin. Cancer Res. 7:3950, 2001); cited from earlier work"}, "[3]": {"tested_on": "HLA-A24 restricted antigen peptide-specific T cells (CTL precursors) in PBMCs", "assay_type": "cell-based, human"}, "[4]": {"tested_on": "CD8 positive and HLA-A24/peptide tetramer positive T cells", "conditions": "PBMCs of healthy donors sensitized in vitro with EBV peptide, protocol C", "quoted_text": "Recombinant HLA-A2402 a chains containing a biotinated portion and recombinant β2-microglobline were synthesized and used for refolding of soluble HLA molecules in the presence of HLA-A2402 binding peptides. […] Monomer HLA-peptide complex was biotinated with BirA in the a chain, which was isolated form free biotin by gel filtration. The biotinated HLA was tetramerized with 4:1 molar ratio of Strept-avidin-PE. PBMCs sensitized in vitro were re-suspended at the ratio of 5×10^5 cells per 25 μl of phosphate buffer saline (PBS) containing 20% of human AB serum. […] After that, the cells were washed with PBS and analyzed using FACScan. Twenty thousand events were obtained.\nMore specifically, PBMCs stimulated according to protocol C determined in Example 3 were analyzed by the tetramer assay as described above."}}, "note": "Where no end group is shown, it is not given here.", "data": [{"sequence": "SYTRLFLIL [SART2899]", "values": [{"measurement": "immediate hypersensitivity reaction in skin test", "setting": "cancer patients [1]", "value": "positive in all patients"}, {"measurement": "rate of skin reaction occurrence", "setting": "healthy donors", "value": 25, "unit": "%"}, {"measurement": "rate of skin reaction occurrence (donors)", "setting": "healthy donors", "value": "10/40"}, {"measurement": "allergic skin reaction in pre-vaccination study", "setting": "cancer patients [2]", "value": "induced allergic skin reaction"}]}, {"sequence": "TYGPVFMCL [EBV, reference compound]", "values": [{"measurement": "detection of peptide-specific T cells", "setting": "[3]", "value": "detected in all 10 donors"}, {"measurement": "difference in IFN-γ production between target cells sensitized with EB virus peptide and HIV peptide", "setting": "[3]", "value": 2775, "unit": "pg/mL"}, {"measurement": "difference in production level of IFN-γ between target cells sensitized with EB virus peptide and HIV peptide", "setting": "[3]", "value": "more than 300 pg/ml"}, {"measurement": "ratio of the CD8 positive and HLA-A24/peptide tetramer positive subsets", "setting": "[4]", "value": 1.15, "unit": "%"}]}, {"sequence": "AYIDFEMKI [SART3315]", "values": [{"measurement": "type I allergy in skin tests during the course of vaccination", "setting": "cancer patients [1]", "value": "did not induce type I allergy"}, {"measurement": "rate of skin reaction occurrence", "setting": "healthy donors", "value": 45, "unit": "%"}, {"measurement": "rate of skin reaction occurrence (donors)", "setting": "healthy donors", "value": "18/40"}, {"measurement": "allergic skin reaction in pre-vaccination study", "setting": "cancer patients [2]", "value": "induced allergic skin reaction"}]}, {"sequence": "AFLRHAAL [ART413, AFLRHAAL]", "values": [{"measurement": "immediate hypersensitivity reaction in skin test", "setting": "cancer patients [1]", "value": "positive in all patients"}, {"measurement": "type I allergy in skin tests during the course of vaccination", "setting": "cancer patients [1]", "value": "did not induce type I allergy"}, {"measurement": "rate of skin reaction occurrence", "setting": "healthy donors", "value": 95, "unit": "%"}, {"measurement": "rate of skin reaction occurrence (donors)", "setting": "healthy donors", "value": "38/40"}, {"measurement": "allergic skin reaction in pre-vaccination study", "setting": "cancer patients [2]", "value": "induced allergic skin reaction"}]}, {"sequence": "DFMIQGGDF [CypB91]", "values": [{"measurement": "immediate hypersensitivity reaction in skin test", "setting": "cancer patients [1]", "value": "positive in all patients"}, {"measurement": "type I allergy in skin tests during the course of vaccination", "setting": "cancer patients [1]", "value": "induced type I allergy"}, {"measurement": "rate of skin reaction occurrence (donors)", "setting": "healthy donors", "value": "no such response"}]}, {"sequence": "RYLRQQLLGI [HIV peptide]", "values": [{"measurement": "ratio of the CD8 positive and HLA-A24/peptide tetramer positive subsets", "setting": "[4]", "value": 0.03, "unit": "%"}]}]}
